Measurements reported in patent publication US9371331B2, “Modulators of methyl modifying enzymes, compositions and uses thereof” (Constellation Pharmaceuticals, Inc., priority 2012, dated 2016).
Where two headings read alike, the source gives them in different places.

Legend:
EZH2 (rPRC2) = EZH2 (rPRC2) (Homo sapiens, UniProt Q15910); assay: EZH2 assay: rPRC2, biotinylated oligonucleosomes, 3H SAM methyl transfer (FlashPlate scintillation); assay type: biochemical; settings: biotinylated oligonucleosome substrate
EZH2 (rPRC2), sequence (Q15910 whole entry): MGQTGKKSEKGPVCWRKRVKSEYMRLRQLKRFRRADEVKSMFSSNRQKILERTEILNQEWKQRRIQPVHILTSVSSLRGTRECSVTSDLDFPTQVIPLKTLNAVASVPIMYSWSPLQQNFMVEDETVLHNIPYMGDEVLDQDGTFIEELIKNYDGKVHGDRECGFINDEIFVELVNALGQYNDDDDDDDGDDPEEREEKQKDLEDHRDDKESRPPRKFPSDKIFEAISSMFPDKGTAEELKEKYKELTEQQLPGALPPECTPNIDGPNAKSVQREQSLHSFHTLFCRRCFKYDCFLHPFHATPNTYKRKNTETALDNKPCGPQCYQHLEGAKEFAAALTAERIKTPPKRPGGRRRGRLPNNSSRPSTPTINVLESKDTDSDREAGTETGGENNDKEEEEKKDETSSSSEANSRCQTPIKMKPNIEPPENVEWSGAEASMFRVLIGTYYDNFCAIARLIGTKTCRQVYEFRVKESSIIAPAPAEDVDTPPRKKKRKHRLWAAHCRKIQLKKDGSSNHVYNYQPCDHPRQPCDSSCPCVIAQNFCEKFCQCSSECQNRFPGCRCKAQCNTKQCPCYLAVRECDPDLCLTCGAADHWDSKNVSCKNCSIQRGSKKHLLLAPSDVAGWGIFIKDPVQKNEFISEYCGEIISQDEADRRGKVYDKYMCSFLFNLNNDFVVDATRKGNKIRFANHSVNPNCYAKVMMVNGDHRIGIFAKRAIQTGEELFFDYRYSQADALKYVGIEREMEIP
EZH2 (rPRC2), sequence (O75530 whole entry partner): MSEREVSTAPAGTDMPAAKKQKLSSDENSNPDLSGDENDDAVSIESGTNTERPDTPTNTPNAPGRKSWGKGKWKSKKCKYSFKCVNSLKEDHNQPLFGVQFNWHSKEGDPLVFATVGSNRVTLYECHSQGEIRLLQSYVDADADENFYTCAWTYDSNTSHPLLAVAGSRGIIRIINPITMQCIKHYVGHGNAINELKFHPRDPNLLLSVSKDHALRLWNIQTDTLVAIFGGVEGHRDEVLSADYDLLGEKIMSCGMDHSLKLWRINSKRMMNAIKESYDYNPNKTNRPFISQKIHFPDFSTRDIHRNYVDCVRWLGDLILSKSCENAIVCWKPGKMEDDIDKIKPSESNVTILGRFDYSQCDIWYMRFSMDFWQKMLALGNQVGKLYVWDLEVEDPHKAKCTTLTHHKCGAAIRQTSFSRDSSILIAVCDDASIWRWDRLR
EZH2 (rPRC2), sequence (Q15022 whole entry partner): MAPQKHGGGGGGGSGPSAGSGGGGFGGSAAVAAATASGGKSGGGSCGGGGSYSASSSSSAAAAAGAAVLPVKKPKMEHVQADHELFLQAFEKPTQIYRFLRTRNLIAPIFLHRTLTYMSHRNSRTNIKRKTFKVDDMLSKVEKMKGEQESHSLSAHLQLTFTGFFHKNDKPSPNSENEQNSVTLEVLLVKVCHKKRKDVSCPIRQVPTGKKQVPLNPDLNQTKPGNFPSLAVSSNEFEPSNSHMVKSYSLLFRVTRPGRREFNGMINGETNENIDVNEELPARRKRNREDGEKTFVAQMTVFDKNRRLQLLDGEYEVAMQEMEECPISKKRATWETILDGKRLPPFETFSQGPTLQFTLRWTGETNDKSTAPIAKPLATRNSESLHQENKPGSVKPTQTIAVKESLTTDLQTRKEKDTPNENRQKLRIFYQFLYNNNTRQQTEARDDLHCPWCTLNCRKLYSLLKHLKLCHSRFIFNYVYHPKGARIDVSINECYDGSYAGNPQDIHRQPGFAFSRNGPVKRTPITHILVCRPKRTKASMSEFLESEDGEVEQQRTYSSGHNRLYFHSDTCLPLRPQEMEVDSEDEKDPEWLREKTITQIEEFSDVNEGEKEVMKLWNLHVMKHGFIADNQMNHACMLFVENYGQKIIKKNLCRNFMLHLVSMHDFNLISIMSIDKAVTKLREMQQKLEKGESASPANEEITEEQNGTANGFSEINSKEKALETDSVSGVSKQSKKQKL
Description: Assays were carried out by mixing rPRC2 together with biotinylated oligonucleosome substrates in the presence of the radio-labeled enzyme co-factor, S-adenosyl-1-methionine (^3H SAM) (Perkin Elmer) and monitoring the enzymatically mediated transfer of tritiated methyl groups from ^3H SAM to histone lysine residues. The amount of resulting tritiated methyl histone product was measured by first capturing the biotinylated oligonucleosomes in streptavidin (SAV) coated FlashPlates (Perkin Elmer), followed by a wash step to remove un-reacted ^3H SAM, and then counting on a TopCount NXT 384 well plate scintillation counter (Perkin Elmer). The final assay conditions for EZH2 were as follows: 50 mM Tris Buffer pH 8.5, 1 mM DTT, 69 μM Brij-35 detergent, 5.0 mM MgCl2, 0.1 mg/mL BSA, 0.2 μM ^3H SAM, 0.2 μM biotinylated oligonucleosomes, 3.6 μM H3K27 mc3 peptide and 2 nM EZH2.
A 12.5 μL volume of the HMT enzyme, H3K27me3 peptide and oligonucleosome substrate in assay buffer was added to each well of the assay plate using a Multidrop Combi (ThermoFisher). Compounds were pre-incubated with the enzyme for 20 min, followed by initiation of the methyltransferase reaction by addition of 12.5 μL of ^3H SAM in assay buffer (final volume=25 μL). The final concentrations of compounds ranged from a top default concentration of 80 μM down to 0.16 μM in ten 2-fold dilution steps. Reactions were carried out for 60 minutes and quenched with 20 μL per well of 1.96 mM SAH, 50 mM Tris pH 8.5, 200 mM EDTA. Stopped reactions were transferred to SAV coated Flashplates (Perkin Elmer), incubated for 120 min, washed with a plate washer, and then read on the TopCount NXT (1.0 min/well) to measure the amount of methyl histone product formed during the reaction.

Y641N EZH2 = Y641N EZH2 (Homo sapiens, UniProt Q15910, Y641N); assay: Y641N EZH2 assay: as EZH2 assay, with reconstituted H3K27Me2 oligonucleosomes as substrate; assay type: biochemical
Y641N EZH2, sequence (Q15910 whole entry Y641N): as the sequence (Q15910 whole entry) above, with Y641N counted along it
Y641N EZH2, sequence (O75530 whole entry partner): as the sequence (O75530 whole entry partner) above
Y641N EZH2, sequence (Q15022 whole entry partner): as the sequence (Q15022 whole entry partner) above

[1] = EZH2 IC50, wild-type EZH2 (rPRC2)
[2] = Y641N EZH2 IC50, Y641N mutant EZH2, H3K27Me2 oligonucleosome substrate
[3] = wild-type EZH2 (rPRC2), read-out: EZH2 IC50
[4] = Y641N mutant EZH2, H3K27Me2 oligonucleosome substrate, read-out: Y641N EZH2 IC50

## COc1cc(C)[nH]c(=O)c1CNC(=O)c1c(C)n(C(C)c2ccn(C)c(=O)c2)c2ncccc12 (single isomer, unassigned) [Compound 268, (R or S)-N-((4-methoxy-6-methyl-2-oxo-1,2-dihydropyridin-3-yl)methyl)-2-methyl-1-(1-(1-methyl-2-oxo-1,2-dihydropyridin-4-yl)ethyl)-1H-pyrrolo[2,3-b]pyridine-3-carboxamide]
EZH2 (rPRC2); [1]
  IC50: < 100 nM
Y641N EZH2; [2]
  IC50: 100 to 1000 nM

## COc1cc(C)[nH]c(=O)c1CNC(=O)c1c(C)n(C(C)C(C)OC)c2ccccc12 (single isomer, unassigned) [Compound 308, Trans-(R or S, R or S)-N-((4-methoxy-6-methyl-2-oxo-1,2-dihydropyridin-3-yl)methyl)-1-(3-methoxybutan-2-yl)-2-methyl-1H-indole-3-carboxamide]
EZH2 (rPRC2); [1]
  IC50: 100 to 1000 nM
Y641N EZH2; [2]
  IC50: 100 to 1000 nM

## Cc1cc(C)c(CNC(=O)c2c(C)n(C(C)CN3CCCCC3)c3ncccc23)c(=O)[nH]1 (racemic) [Compound 272, (±)-N-((4,6-dimethyl-2-oxo-1,2-dihydropyridin-3-yl)methyl)-2-methyl-1-(1-(piperidin-1-yl)propan-2-yl)-1H-pyrrolo[2,3-b]pyridine-3-carboxamide]
EZH2 (rPRC2); [1]
  IC50: 1000 to 10000 nM
Y641N EZH2; Y641N mutant EZH2, H3K27Me2 oligonucleosome substrate
  Y641N EZH2 IC50: *(10 μM)

## COc1cc(C)[nH]c(=O)c1CNC(=O)c1c(C)n(C(C)C(C)OC)c2ncccc12 (single isomer, unassigned) [Compound 302, N-((4-methoxy-6-methyl-2-oxo-1,2-dihydropyridin-3-yl)methyl)-1-((2R or 2S, 3R or 3S)-3-methoxybutan-2-yl)-2-methyl-1H-pyrrolo[2,3-b]pyridine-3-carboxamide]
EZH2 (rPRC2); [1]
  IC50: 100 to 1000 nM
Y641N EZH2; [2]
  IC50: 1000 to 10000 nM

## Cc1cc(C)c(CNC(=O)c2c(C)n([C@H](C)c3ccccc3)c3nc(C)ncc23)c(O)n1 [Compound 176, (R)-N-((2-hydroxy-4,6-dimethylpyridin-3-yl)methyl)-2,6-dimethyl-7-(1-phenylethyl)-7H-pyrrolo[2,3-d]pyrimidine-5-carboxamide]
EZH2 (rPRC2); [1]
  IC50: < 100 nM
Y641N EZH2; [2]
  IC50: 100 to 1000 nM

## Cc1cc(C)c(CNC(=O)c2cn(-c3ccccc3C)c3ccccc23)c(O)n1 [Compound 113, N-((2-hydroxy-4,6-dimethylpyridin-3-yl)methyl)-1-(o-tolyl)-1H-indole-3-carboxamide]
EZH2 (rPRC2); [3]
  IC50: 100 to 1000 nM
Y641N EZH2; [4]
  IC50: 1000 to 10000 nM

## CC[C@@H](C)n1c(C)c(C(=O)NCc2c(C)cc(C)[nH]c2=O)c2cnc(CO)nc21 [Compound 199, (R)-7-(sec-butyl)-N-((4,6-dimethyl-2-oxo-1,2-dihydropyridin-3-yl)methyl)-2-(hydroxymethyl)-6-methyl-7H-pyrrolo[2,3-d]pyrimidine-5-carboxamide]
EZH2 (rPRC2); [3]
  IC50: 100 to 1000 nM
Y641N EZH2; [4]
  IC50: 1000 to 10000 nM

## Cc1cc(C)c(CNC(=O)c2c(C)n(C(C)c3ccccc3)c3c(=O)n(C)ccc23)c(=O)[nH]1 (racemic) [Compound 139, N-((4,6-dimethyl-2-oxo-1,2-dihydropyridin-3-yl)methyl)-2,6-dimethyl-7-oxo-1-(1-phenylethyl)-6,7-dihydro-1H-pyrrolo[2,3-c]pyridine-3-carboxamide]
EZH2 (rPRC2); [3]
  IC50: 100 to 1000 nM
Y641N EZH2; [4]
  IC50: 1000 to 10000 nM

## COCC(C)n1c(C)c(C(=O)NCc2c(OC)cc(C)[nH]c2=O)c2ccc(C(F)(F)F)nc21 (racemic) [Compound 309, (±)-N-((4-methoxy-6-methyl-2-oxo-1,2-dihydropyridin-3-yl)methyl)-1-(1-methoxypropan-2-yl)-2-methyl-6-(trifluoromethyl)-1H-pyrrolo[2,3-b]pyridine-3-carboxamide]
EZH2 (rPRC2); [1]
  IC50: 100 to 1000 nM
Y641N EZH2; [2]
  IC50: 1000 to 10000 nM

## COc1cc(C)[nH]c(=O)c1CNC(=O)c1c(C)n(C(C)C#N)c2ncccc12 (racemic) [Compound 214, (±)-1-(1-cyanoethyl)-N-((4-methoxy-6-methyl-2-oxo-1,2-dihydropyridin-3-yl)methyl)-2-methyl-1H-pyrrolo[2,3-b]pyridine-3-carboxamide]
EZH2 (rPRC2); [1]
  IC50: 100 to 1000 nM
Y641N EZH2; [2]
  IC50: 1000 to 10000 nM

## CC[C@@H](C)n1c(C)c(C(=O)NCc2c(C)cc(C)nc2O)c2cnc(-c3ccccc3)nc21 [Compound 188, (R)-7-(sec-butyl)-N-((2-hydroxy-4,6-dimethylpyridin-3-yl)methyl)-6-methyl-2-phenyl-7H-pyrrolo [2,3-d]pyrimidine-5-carboxamide]
EZH2 (rPRC2); [3]
  IC50: 100 to 1000 nM
Y641N EZH2; [4]
  IC50: 1000 to 10000 nM

## CCC(OC)C(C)n1c(C)c(C(=O)NCc2c(C)cc(C)[nH]c2=O)c2ccccc21 (racemic) [Compound 275, (±)-N-((4,6-dimethyl-2-oxo-1,2-dihydropyridin-3-yl)methyl)-1-(3-methoxypentan-2-yl)-2-methyl-1H-indole-3-carboxamide]
EZH2 (rPRC2); [1]
  IC50: < 100 nM
Y641N EZH2; [2]
  IC50: < 100 nM

## COc1cc(C)[nH]c(=O)c1CNC(=O)c1c(C)n(C(C)C2CCN(CC(=O)O)CC2)c2ccccc12 (single isomer, unassigned) [Compound 364, (R or S)-2-(4-(1-(3-((4-methoxy-6-methyl-2-oxo-1,2-dihydropyridin-3-yl)methylcarbamoyl)-2-methyl-1H-indol-1-yl)ethyl)piperidin-1-yl) acetic acid]
EZH2 (rPRC2); [1]
  IC50: < 100 nM
Y641N EZH2; [2]
  IC50: 100 to 1000 nM

## COc1cc(C)[nH]c(=O)c1CNC(=O)c1c(C)n(C(C)C(C)S(C)(=O)=O)c2ccccc12 (centres unmarked) [Compound 350, N-((4-methoxy-6-methyl-2-oxo-1,2-dihydropyridin-3-yl)methyl)-2-methyl-1-(3-(methylsulfonyl)butan-2-yl)-1H-indole-3-carboxamide]
EZH2 (rPRC2); [1]
  IC50: < 100 nM
Y641N EZH2; [2]
  IC50: < 100 nM

## COCCOC(C)C(C)n1c(C)c(C(=O)NCc2c(OC)cc(C)[nH]c2=O)c2cccnc21 (racemic) [Compound 297, (±)-N-((4-methoxy-6-methyl-2-oxo-1,2-dihydropyridin-3-yl)methyl)-1-(3-(2-methoxyethoxy)butan-2-yl)-2-methyl-1H-pyrrolo[2,3-b]pyridine-3-carboxamide 2,2,2-trifluoroacetate]
EZH2 (rPRC2); [1]
  IC50: < 100 nM
Y641N EZH2; [2]
  IC50: 100 to 1000 nM

## Cc1cc(C)c(CNC(=O)c2c(C)n(C(C)c3cccc(C#N)c3)c3ccccc23)c(=O)[nH]1 (single isomer, unassigned) [Compound 228, (R or S)-1-(1-(3-cyanophenyl)ethyl)-N-((4,6-dimethyl-2-oxo-1,2-dihydropyridin-3-yl)methyl)-2-methyl-1H-indole-3-carboxamide]
EZH2 (rPRC2); [1]
  IC50: 100 to 1000 nM
Y641N EZH2; [2]
  IC50: 100 to 1000 nM

## COc1cc(C)[nH]c(=O)c1CNC(=O)c1c(C)n(C(C)C2CCS(=O)(=O)CC2)c2ccccc12 (single isomer, unassigned) [Compound 305, (R or S)-1-(1-(1,1-dioxidotetrahydro-2H-thiopyran-4-yl)ethy1)-N-((4-methoxy-6-methyl-2-oxo-1,2-dihydropyridin-3-yl)methy1)-2-methyl-1H-indole-3-carboxamide]
EZH2 (rPRC2); [1]
  IC50: < 100 nM
Y641N EZH2; [2]
  IC50: 100 to 1000 nM

## Cc1cc(C)c(CNC(=O)c2c(C)n(C(C)c3ccc(S(C)(=O)=O)cc3)c3ccccc23)c(=O)[nH]1 (racemic) [Compound 179, (±)-N-((4,6-dimethyl-2-oxo-1,2-dihydropyridin-3-yl)methyl)-2-methyl-1-(1-(4-(methylsulfonyl)phenyl)ethyl)-1H-indole-3-carboxamide]
EZH2 (rPRC2); [1]
  IC50: < 100 nM
Y641N EZH2; [2]
  IC50: 100 to 1000 nM

## COCC(C)n1c(C)c(C(=O)NCc2c(OC)cc(C)[nH]c2=O)c2cccnc21 (single isomer, unassigned) [Compound 257, (R or S)-N-((4-methoxy-6-methyl-2-oxo-1,2-dihydropyridin-3-yl)methyl)-1-(1-methoxypropan-2-yl)-2-methyl-1H-pyrrolo[2,3-b]pyridine-3-carboxamide]
EZH2 (rPRC2); [1]
  IC50: 100 to 1000 nM
Y641N EZH2; [2]
  IC50: 1000 to 10000 nM

## Cc1cc(C)c(CNC(=O)c2c(C)n(C(C)CN3CCOCC3)c3ncccc23)c(=O)[nH]1 (racemic) [Compound 237, (±)-N-((4,6-dimethyl-2-oxo-1,2-dihydropyridin-3-yl)methyl)-2-methyl-1-(1-morpholinopropan-2-yl)-1H-pyrrolo[2,3-b]pyridine-3-carboxamide]
EZH2 (rPRC2); [1]
  IC50: 100 to 1000 nM
Y641N EZH2; [2]
  IC50: 1000 to 10000 nM

## Cc1cc(C)c(CNC(=O)c2cnn(-c3ccccc3)c2C)c(=O)[nH]1 [Compound 100, N-((4,6-dimethyl-2-oxo-1,2-dihydropyridin-3-yl)methyl)-5-methyl-1-phenyl-1H-pyrazole-4-carboxamide]
EZH2 (rPRC2); [3]
  IC50: 1000 to 10000 nM
Y641N EZH2; [4]
  IC50: > 10000 nM

## CCOc1cc(C)[nH]c(=O)c1CNC(=O)c1c(C)n(C(C)COC)c2ncccc12 (racemic) [Compound 235, (±)-N-((4-ethoxy-6-methyl-2-oxo-1,2-dihydropyridin-3-yl)methyl)-1-(1-methoxypropan-2-yl)-2-methyl-1H-pyrrolo[2,3-b]pyridine-3-carboxamide]
EZH2 (rPRC2); [1]
  IC50: 100 to 1000 nM
Y641N EZH2; [2]
  IC50: 1000 to 10000 nM
